One test relates to SCLC strain SHP-77. The test is described as follows: MTT assay for cell survival, SCLC SHP-77 in vitro. The format is cell-based, human. Conditions: ED50 for killing of SCLC strain SHP-77 in vitro, 4 days, 0 = no detectable activity.
A further test deals with PC3 PC cells. In words: Inhibition of PC3 tumor growth in vivo in nude mice. Further details: species or system athymic nude mice; key to PC3 In vivo % inhib.: an IC50 value of “0” represents no detectable anti-cancer activity for a drug in a given cell line; “Stim.” indicates the observation of a stimulatory activity on the growth of the cancer cell line. To be noted: percent inhibition of tumor growth in nude mice; prostate cancer; i.p. 5 mg/kg/every second day or 10 mg/kg/every fourth day. How it is done: Compounds having high in vitro cytotoxic activity were tested against implanted tumors in vivo. Athymic nude mice were implanted subcutaneously with suspensions (2 million SHP-77 SCLC cells, 1 million A549 NSCLC cells or 1.5 million PC3 PC cells) in Matrigel suspension. On the eighth day after tumor implantation groups of 5 mice bearing implants were injected intraperitoneally with the compounds being tested at 5 mg/kg/every second day or at 10 mg/kg/every fourth day; control animals were injected with an equal volume of isotonic saline. Less soluble compounds were initially dissolved in dimethyl sulfoxide (DMSO) and diluted with medium. In those cases the control injections contained the same concentration of DMSO. Tumor size was measured with a caliper three times per week. Tumor volume was calculated by the formula: Volume(cc)=3.14×(length)×(width)^2/6 At autopsy tumors were removed and weighed. Tumor inhibition was calculated on both weight and measurement basis. In each Table, an IC50 value of “0” represents no detectable anti-cancer activity for a drug in a given cell line and “Stim.” indicates the observation of a stimulatory activity on the growth of the cancer cell line.

Where two headings read alike, the source gives them in different places.

As to `COc1ccc2c(c1)c(CC(=O)N[C@@H](Cc1ccc(OCc3c(Cl)cccc3Cl)cc1)C(=O)N1CCN(c3ncccn3)CC1)c(C)n2C(=O)c1ccc(Cl)cc1` [Analog M-1562, Indo-OC2Y-Pmpz], the IC50 with SCLC strain SHP-77 (read-out: SCLC SHP-77 IC50) is greater than 60 µM. In the test with PC3 PC cells, the “PC3 In vivo % inhib.” value is listed as 2%.

As to `CCCCC/C=C\C/C=C\C/C=C\C/C=C\CCCC(=O)NC(Cc1ccc(OCc2c(Cl)cccc2Cl)cc1)C(=O)NC1CC(C)(C)NC(C)(C)C1` (centres unmarked) [Analog M-1442, Arac-OC2Y-Atmp], the IC50 with SCLC strain SHP-77 (read-out: SCLC SHP-77 IC50) is 6.4 µM. The “PC3 In vivo % inhib.” value in the test on PC3 PC cells was 31%.

As for `COc1ccc2cc(C(C)C(=O)NC(C(=O)NC3CC(C)(C)NC(C)(C)C3)C(C)(C)SCc3ccc(C)cc3)ccc2c1` (centres unmarked) [Analog M-1506, Napr-Pen(Mbzl)-Atmp], the IC50 in the test with SCLC strain SHP-77 (read-out: SCLC SHP-77 IC50) worked out at 4.7 µM. For the same molecule, the “PC3 In vivo % inhib.” value in the test with PC3 PC cells stood at 13%.

For the molecule `CC1(C)CC(NC(=O)C(Cc2ccc(OCc3c(Cl)cccc3Cl)cc2)NC(=O)c2ccccc2O)CC(C)(C)N1` (centres unmarked) [Analog M-1450, 2Hyb-OC2Y-Atmp], the IC50 in the test on SCLC strain SHP-77 (read-out: SCLC SHP-77 IC50) was 13 µM. In addition, in the test with PC3 PC cells, the “PC3 In vivo % inhib.” value is on record as “Stim”.

As for `O=C(C=Cc1c(F)c(F)c(F)c(F)c1F)NC(Cc1ccc(-c2ccccc2)cc1)C(=O)N1CCN(c2ccccn2)CC1` (centres unmarked) [Analog M-1258, F5c-Bip-Pypz], the IC50 in the test with SCLC strain SHP-77 (read-out: SHP-77 In vitro IC50) stood at 48 µM. Besides, the “PC3 In vivo % inhib.” value in the test with PC3 PC cells was 10%.

On to `Cc1ccc(CSC(C)(C)C(NC(=O)C23CC4CC(CC(C4)C2)C3)C(=O)NC2CC(C)(C)NC(C)(C)C2)cc1` (centres unmarked) [Analog M-1492, Aca-Pen(Mbzl)-Atmp], for which the IC50 with SCLC strain SHP-77 (read-out: SCLC SHP-77 IC50) was determined as 3.4 µM. The “PC3 In vivo % inhib.” value in the test with PC3 PC cells turned out to be 15%.

As for `CC1(C)CC(NC(=O)C(Cc2ccc(OCc3c(Cl)cccc3Cl)cc2)NC(=O)C2=CN3CCC2CC3)CC(C)(C)N1` (centres unmarked) [Analog M-1396, Dhq-OC2Y-Atmp], in the test with SCLC strain SHP-77 (read-out: SCLC SHP-77 IC50), the IC50 was 15 µM. Further, the “PC3 In vivo % inhib.” value with PC3 PC cells worked out at 9%.

For the molecule `CC1(C)CC(NC(=O)C(Cc2ccc(OCc3c(Cl)cccc3Cl)cc2)NC(=O)c2ccc(OC(F)(F)F)cc2)CC(C)(C)N1` (centres unmarked) [Analog M-1538, 4Tfmb-OC2Y-Atmp], the IC50 in the test on SCLC strain SHP-77 (read-out: SCLC SHP-77 IC50) came out at 1.8 µM. The “PC3 In vivo % inhib.” value with PC3 PC cells is “Stim”.

As to `O=C(NC(Cc1ccc2ccccc2c1)C(=O)N1CCC(N2CCCCC2)CC1)C(c1ccc(Cl)cc1)c1ccc(Cl)cc1` (centres unmarked) [Analog M-1246, Bcpa-Nal-Pipp], in the test on SCLC strain SHP-77 (read-out: SHP-77 In vitro IC50), the IC50 was found to be 3.6 µM. Further, the “PC3 In vivo % inhib.” value in the test on PC3 PC cells was “Stim”.

For the molecule `Cc1ccc(CSC(C)(C)C(NC(=O)COc2c(F)c(F)c(F)c(F)c2F)C(=O)NC2CC(C)(C)NC(C)(C)C2)cc1` (centres unmarked) [Analog M-1486, F5po-Pen(Mbzl)-Atmp], in the test on SCLC strain SHP-77 (read-out: SCLC SHP-77 IC50), the IC50 stood at 4.2 µM. Further, the “PC3 In vivo % inhib.” value with PC3 PC cells turned out to be 21%.

Consider `CC1(C)CC(NC(=O)[C@H](Cc2ccc(C#N)cc2)NC(=O)C(C)(c2ccccc2)c2ccccc2)CC(C)(C)N1` [Analog M-1512, 22Dp-PCNF-Atmp], for which, in the test with SCLC strain SHP-77 (read-out: SCLC SHP-77 IC50), the IC50 is 22 µM. In addition, in the test on PC3 PC cells, the “PC3 In vivo % inhib.” value amounted to 48%.

Consider `CC1(C)CC(NC(=O)C(Cc2ccc(OCc3c(Cl)cccc3Cl)cc2)NC(=O)c2c(F)c(F)c(F)c(F)c2F)CC(C)(C)N1` (centres unmarked) [Analog M-1360, F5bz-OC2Y-Atmp], for which, in the test on SCLC strain SHP-77 (read-out: SCLC SHP-77 IC50), the IC50 worked out at 4.1 µM. Besides, the “PC3 In vivo % inhib.” value with PC3 PC cells is on record as “Stim”.

As for `COc1cc(C(=O)NC(Cc2ccc(OCc3c(Cl)cccc3Cl)cc2)C(=O)NC2CC(C)(C)NC(C)(C)C2)cc(OC)c1OC` (centres unmarked) [Analog M-1408, 3,4,5Tmb-OC2Y-Atmp], the IC50 in the test on SCLC strain SHP-77 (read-out: SCLC SHP-77 IC50) came to 8 µM. In addition, the “PC3 In vivo % inhib.” value in the test with PC3 PC cells is recorded as “Stim”.

In the case of `CCCCCC=CC(=O)NC(Cc1ccc(OCc2c(Cl)cccc2Cl)cc1)C(=O)NC1CC(C)(C)NC(C)(C)C1` (centres unmarked) [Analog M-1412, 2Octe-OC2Y-Atmp], in the test with SCLC strain SHP-77 (read-out: SCLC SHP-77 IC50), the IC50 was 12 µM. The “PC3 In vivo % inhib.” value in the test on PC3 PC cells turned out to be 38%.

For the molecule `CC1(C)CC(NC(=O)C(Cc2ccc([N+](=O)[O-])cc2)NC(=O)C=Cc2c(F)c(F)c(F)c(F)c2F)CC(C)(C)N1` (centres unmarked) [Analog M-1112, F5c-PNF-Atmp], the IC50 in the test with SCLC strain SHP-77 (read-out: SHP-77 In vitro IC50) was found to be 30 µM. In addition, the “PC3 In vivo % inhib.” value with PC3 PC cells stood at 24%.

On to `COc1ccc2c(c1)c(CC(=O)N[C@H](Cc1ccc(OCc3c(Cl)cccc3Cl)cc1)C(=O)NC1CC(C)(C)NC(C)(C)C1)c(C)n2C(=O)c1ccc(Cl)cc1` [Analog M-1586, Indo-D-OC2Y-Atmp], for which, in the test with SCLC strain SHP-77 (read-out: SCLC SHP-77 IC50), the IC50 amounted to 1.7 µM. The “PC3 In vivo % inhib.” value in the test on PC3 PC cells worked out at 38%.

`CC1(C)CC(NC(=O)C(Cc2ccc(OCc3c(Cl)cccc3Cl)cc2)NC(=O)c2ccc(C(F)(F)F)cc2)CC(C)(C)N1` (centres unmarked) [Analog M-1484, Ptmb-OC2Y-Atmp]: the IC50 in the test on SCLC strain SHP-77 (read-out: SCLC SHP-77 IC50) was 1.8 µM. Besides, the “PC3 In vivo % inhib.” value in the test on PC3 PC cells was “Stim”.

For the molecule `CC1(C)CC(NC(=O)C(Cc2ccc(OCc3c(Cl)cccc3Cl)cc2)NC(=O)c2c(F)c(N)cc(F)c2F)CC(C)(C)N1` (centres unmarked) [Analog M-1420, Atfb-OC2Y-Atmp], the IC50 in the test on SCLC strain SHP-77 (read-out: SCLC SHP-77 IC50) is 12 µM. Also, the “PC3 In vivo % inhib.” value with PC3 PC cells is reported as “Stim”.

Take `CC1(C)CC(NC(=O)C(NC(=O)C=Cc2c(F)c(F)c(F)c(F)c2F)C2Cc3ccccc3C2)CC(C)(C)N1` (centres unmarked) [Analog M-1052, F5c-Igl-Atmp]: the IC50 in the test on SCLC strain SHP-77 (read-out: SHP-77 In vitro IC50) turned out to be 7.3 µM. In addition, the “PC3 In vivo % inhib.” value in the test on PC3 PC cells is 27%.

For `Cc1ccc(CSC(C)(C)C(NC(=O)c2cnccn2)C(=O)NC2CC(C)(C)NC(C)(C)C2)cc1` (centres unmarked) [Analog M-1522, 2Pyz-Pen(Mbzl)-Atmp], the IC50 in the test on SCLC strain SHP-77 (read-out: SCLC SHP-77 IC50) is 31 µM. Further, in the test on PC3 PC cells, the “PC3 In vivo % inhib.” value is “Stim”.

Consider `CC1(C)CC(NC(=O)C(Cc2ccc(OCc3c(Cl)cccc3Cl)cc2)NC(=S)Nc2c(F)c(F)c(F)c(F)c2F)CC(C)(C)N1` (centres unmarked) [Analog M-1094, F5PT-OC2Y-Atmp], for which the IC50 with SCLC strain SHP-77 (read-out: SHP-77 In vitro IC50) is 3.2 µM. For the same molecule, the “PC3 In vivo % inhib.” value in the test with PC3 PC cells was 52%.

In the case of `O=C(C=Cc1c(F)c(F)c(F)c(F)c1F)NC(Cc1ccc(OCc2c(Cl)cccc2Cl)cc1)C(=O)N1CCN(c2ncccn2)CC1` (centres unmarked) [Analog M-1554, F5c-OC2Y-Pmpz], the IC50 in the test on SCLC strain SHP-77 (read-out: SCLC SHP-77 IC50) is 6.8 µM. Moreover, in the test on PC3 PC cells, the “PC3 In vivo % inhib.” value is listed as “Stim”.

On to `Cc1ccc(CSC(C)(C)C(NC(=O)C(C)(c2ccccc2)c2ccccc2)C(=O)NC2CC(C)(C)NC(C)(C)C2)cc1` (centres unmarked) [Analog M-1510, 22Dp-Pen(Mbzl)-Atmp], for which the IC50 in the test on SCLC strain SHP-77 (read-out: SCLC SHP-77 IC50) came out at 4.2 µM. The “PC3 In vivo % inhib.” value in the test with PC3 PC cells was “Stim”.

Regarding `COc1ccc2c(c1)c(CC(=O)N[C@@H](Cc1ccc(OCc3c(Cl)cccc3Cl)cc1)C(=O)NC1CCN(Cc3ccccc3)CC1)c(C)n2C(=O)c1ccc(Cl)cc1` [Analog M-1558, Indo-OC2Y-Abzp], the IC50 in the test on SCLC strain SHP-77 (read-out: SCLC SHP-77 IC50) was found to be 9.6 µM. Moreover, the “PC3 In vivo % inhib.” value in the test with PC3 PC cells is “Stim”.

`CC1(C)CC(NC(=O)C(Cc2ccc(OCc3c(Cl)cccc3Cl)cc2)NS(=O)(=O)c2ccc(OC(F)(F)F)cc2)CC(C)(C)N1` (centres unmarked) [Analog M-1536, 4Tmbs-OC2Y-Atmp]: the IC50 in the test with SCLC strain SHP-77 (read-out: SCLC SHP-77 IC50) came out at 3.2 µM. For the same molecule, the “PC3 In vivo % inhib.” value with PC3 PC cells was “Stim”.

Consider `Cc1ncc(CO)c(CN[C@@H](Cc2ccc(OCc3c(Cl)cccc3Cl)cc2)C(=O)NC2CC(C)(C)NC(C)(C)C2)c1O` [Analog M-1610, B6-OC2Y-Atmp], for which the IC50 in the test with SCLC strain SHP-77 (read-out: SCLC SHP-77 IC50) is greater than 60 µM. Also, the “PC3 In vivo % inhib.” value in the test with PC3 PC cells was “Stim”.

For the molecule `Cc1ncc(CO)c(CNC(=O)[C@H](Cc2ccc(OCc3c(Cl)cccc3Cl)cc2)NC(=O)/C=C/c2c(F)c(F)c(F)c(F)c2F)c1O` [Analog M-1622, F5c-OC2Y-Pxa], the IC50 in the test with SCLC strain SHP-77 (read-out: SCLC SHP-77 IC50) turned out to be 22 µM. Moreover, the “PC3 In vivo % inhib.” value in the test on PC3 PC cells is 58%.

With `CC1(C)CC(NC(=O)[C@H](Cc2ccc(OCc3c(Cl)cccc3Cl)cc2)NC(=O)CCP(=O)(O)O)CC(C)(C)N1` [Analog M-1616, 3Php-OC2Y-Atmp], the IC50 in the test with SCLC strain SHP-77 (read-out: SCLC SHP-77 IC50) was greater than 60 µM. Also, the “PC3 In vivo % inhib.” value in the test on PC3 PC cells is 18%.

(Values after patent publication US7858349B2, “Anti-cancer compounds” (The Regents of the University of Colorado, priority 1999, dated 2010).)
